# Data published in article PMC8901753, “An ultrasensitive microfluidic approach reveals correlations between the physico-chemical and biological activity of experimental peptide antibiotics” (Scientific Reports, 2022).
# Experiments:
# [1] = tested on: E. coli BW25113 cells; assay: Mother-machine microfluidics-microscopy single-cell assay; type: cell-based, Escherichia coli; details: for cell division during peptide treatment / coefficient of variation (CV) in the cell lengths / Lmean 3h (mean cell length normalized to initial cell length) / survival fraction (fraction of wells hosting dividing cells after peptide treatment and overnight LB) / increase in cell length on average before cell death: 10 μM peptide; for cell division during peptide treatment: 3 h, measured per well; for coefficient of variation (CV) in the cell lengths: 3 h time point, susceptible cells, 20 cells from 2 repeats (bienA9: 5 cells, 1 experiment); for Lmean 3h (mean cell length normalized to initial cell length): 3 h time-point, mean ± std. dev.; for Lmean 3h (mean cell length normalized to initial cell length) / increase in cell length on average before cell death: susceptible cells killed before dividing; for survival fraction (fraction of wells hosting dividing cells after peptide treatment and overnight LB): continuous flow 3 h, then LB overnight (17–18 h), stationary phase cells, mean ± std. dev. over 2 biological repeats; for No. of non-dividing survivors at the end of the experiments: 10 M [sic] peptide, cells that did not divide and did not stain with propidium iodide, out of 305–323 initial cells
# Text: The “mother-machine” system (Fig. 1A) enables the physical confinement of individual bacteria in well-controlled microenvironments, where they can be sequentially exposed to nutrients, drugs or viability indicators and the responses studied using time-lapse microscopy[28]–[30]. This technology has been used extensively to study bacterial-drug interactions, using a range of conventional small-molecule antibiotics such as ampicillin, gentamicin, ciprofloxacin (amongst others)[28],[30]–[33], phages[34] as well as novel protein pseudocapsid based antibacterials. Briefly E. coli BW25113 cells were cultured overnight in Lysogeny Broth (LB) at 37 °C to stationary phase and injected into the mother-machine microfluidic device (see “Experimental section” and[28],[29],[31],[32]). We waited for the cells to populate the “wells” of the chip (Fig. 1), following which the trapped cells were challenged with a continuous flow of peptide (10 μM) for 3 h, with images taken hourly. After 3 h of treatment, the cells were provided with fresh LB to study survivors. Post overnight (O/N) LB treatment, dead staining was performed with propidium iodide (PI). Dead cells either lysed or took up PI and appeared bright under fluorescence illumination (Fig. 1B). […] However, the cells that were dividing at the end of the experiment were unambiguously alive. Therefore, we chose to use only these dividing cells in our quantitative analysis discussed below.
# Thus, reaching a critical peptide length leads to increased antibacterial activity with the bienA peptides. […] For bienK10 and bienK11, the survival fractions were 56 ± 26% (204 wells, 305 cells) and 31 ± 18% (215 wells, 311 cells) respectively (Fig. 2B), markedly different from the bienA10 and bienA11 results (Fig. 2A). Thus for these bienK peptides, while some individual cells were killed by the peptides, a large number of other clonal relatives survived the exact same conditions, similar to the example shown in Fig. 1. […] Our results reveal important phenotypic variants seemingly oblivious to the effects of these polypeptide antibiotics that are able to grow and divide even during treatment, while their clonal relatives perish. We also observed similar trends when quantifying the cellular division rates in response to the peptides (Fig. 2C,D). […] Again, as with the survival fractions, this peptide length dependence was not observed for the cellular division rates with the bienK series (Fig. 2D).
# The Escherichia coli (BW25113) cultures were prepared in 150 mL of Lysogeny Broth (LB; 10 g/L tryptone, 5 g/L yeast extract and 10 g/L NaCl, Melford) with shaking at 200 rpm and incubation at 37 °C overnight (drug dosage during experiments was typically performed around 19–20 h after starting the culture). Prior to seeding in the microfluidic chip, the OD (optical density) of the culture was measured, the cells spun down at 3220g for 5 min and the supernatant filtered twice (0.22 µm, Millipore); this twice filtered supernatant is hereafter referred to as “spent LB”. All OD measurements were carried out at 600 nm. The cell pellet was resuspended in spent LB at an approximate OD of 75; this concentrated stationary phase culture was used when seeding the microfluidic chip with bacteria. Note, the OD of 75 is a theoretical value—we measure the OD of the original stationary phase culture, and calculate the volume of spent LB that the cell pellet (post centrifugation) is to be resuspended in to achieve this OD. In practical terms, one simply needs to concentrate the culture to optimise the efficiency of cells entering the wells of the mother-machine microfluidic device within a 30 min timeframe. We also note that unlike most traditional bulk experiments, we chose to study cells initially seeded in the microfluidic device in stationary phase, in line with previous studies using this platform[30]–[32],[34]. […]
# [2] = Single-GUV dye (HPTS) leakage assay, membranolytic activity; details: for vesicle survival rate: continuous flow, after 7 h, PBS pH 7.4, mean ± std. dev., 2 independent repeats; for mode of action from time distribution of single-GUV leakage events: 5 and 10 μM peptide
# Text: Given this variability in the cellular responses to treatment, we hypothesized that cell-to-cell differences at the membrane level could underlie the observed heterogeneity in the bacterial responses to these novel peptides. We therefore used anionic giant unilamellar vesicles (GUVs) as highly controlled model membranes to study the membranolytic activity of the bienA and bienK peptides. The vesicles were produced in a microfluidic chip using octanol-assisted liposome assembly (OLA)[40] and made with a 3:1 mixture of 1,2-dioleoyl-sn-glycero-3-phosphocholine (DOPC) and 1,2-dioleoyl-sn-glycero-3- phospho-rac-(1-glycerol) sodium salt (DOPG) to mimic the anionic charge of bacterial membranes[27] (Fig. 4). We note that E. coli membranes are estimated to be ~ 20% PG, and that lipids of the inner membrane in particular contain a high proportion (over 95%) of phospholipids, similar to our phospholipid-based GUV models. The more complex E. coli outer membrane includes both phospholipids and glycolipids. […] In particular, in a direct comparison, AMP induced membrane permeabilisation was similar across GUVs and E. coli inner (cytoplasmic) membranes, albeit with some interesting dissimilarities in a few specific details. In our assay, the GUVs were formed encapsulating a membrane impermeable dye, HPTS (8-hydroxypyrene-1,3,6-trisulfonic acid) and immobilized using an array of physical traps; the peptide solution was then flowed over them using a continuous flow system.
# Figure 4 Schematic of the integrated GUV production, trapping and perfusion platform. GUVs are produced using octanol-assisted liposome assembly at a 6-way junction as described elsewhere. Briefly, lipids dissolved in octanol (the “LO” phase) are brought together at the junction with inner aqueous (IA) and outer aqueous (OA) streams, leading to the production of GUVs hosting octanol droplets. The octanol droplets bud off the GUVs downstream. This mixture of GUVs and octanol droplets is distributed into an array of trapping chambers via a connector chip, which additionally facilitates the separation of the GUVs and octanol droplets (for details, please see Al Nahas et al. Lab Chip 2019[27]). The trapped vesicles contain the membrane-impermeable fluorescent dye HPTS. Post-trapping, the GUVs are subjected to a continuous flow of peptides, and the membranolytic efficacy of the peptides is determined by studying the leakage of the fluorescent dye from the interior of the GUVs via video fluorescence microscopy.
# We have published detailed protocols for the design, fabrication and operation of the microfluidic device for immobilizing and testing thousands of individual GUVs, which can be found elsewhere[23],[27]. A detailed protocol for the octanol-assisted liposome assembly (OLA) technique of producing GUVs on chip is also available. Briefly, our platform facilitated three procedural steps integrated in a single device. First, the OLA[40] technique was used to prepare GUVs. Next, the GUVs were trapped downstream in arrays of hydrodynamic posts. Finally, the immobilized GUVs were perfused with the desired dose of a peptide. All lipids described in the text were purchased from Avanti Polar Lipids. The GUVs were prepared in sucrose solution (200 mM) with glycerol (15% v/v) in PBS (pH 7.4). The vesicles were formed encapsulating the fluorescent membrane-impermeable dye 8-hydroxypyrene-1,3,6-trisulfonic acid from Thermo Fisher (HPTS, 50 μM). The microfluidic platform was operated by two positive pressure-driven pump modules (MFCS-4C, Fluigent), and a single neMESYS syringe pump module for fluid manipulation. The trapped GUVs were continuously dosed with buffer solution loaded with 5 μM HPTS (as a tracer) and the peptide of interest at 5 or 10 μM concentrations (the stock peptide solutions were prepared in milliQ water as described previously). […]
Sequence,cell division during peptide treatment [1],coefficient of variation (CV) in the cell lengths [1],Lmean 3h (mean cell length normalized to initial cell length) [1],survival fraction (fraction of wells hosting dividing cells after peptide treatment and overnight LB) [1],survival fraction (fraction of wells hosting dividing cells after peptide treatment and overnight LB) ([1]; listed as BienA9),No. of non-dividing survivors at the end of the experiments [1],vesicle survival rate ([2]; 5 μM peptide),vesicle survival rate ([2]; 10 μM peptide),mode of action from time distribution of single-GUV leakage events [2],increase in cell length on average before cell death [1],"vesicle survival rate ([2]; 10 μM peptide, listed as A10)",survival fraction (fraction of wells hosting dividing cells after peptide treatment and overnight LB) ([1]; listed as A11),"vesicle survival rate ([2]; 10 μM peptide, listed as A11)"
"RLLRLALRL [bienA9, ultrashort amphipathic helix peptide with binary encoding by arginine and leucine, alanine at the mutation position]",did not,17%,0.9 ± 0.2,65 ± 11%,over 50%,11,41 ± 3%,19.9 ± 0.5%,bimodal all-or-none mode,,,,
"RLLRLALRLL [bienA10, ultrashort amphipathic helix peptide with binary encoding by arginine and leucine, alanine at the mutation position]",immediately and uniformly arrested cell division,16%,1.2 ± 0.2,less than 5%,,6,12 ± 2%,complete disruption of the entire vesicle population,unimodal “graded” mode of action,20%,0%,,
"RLLRLALRLLR [bienA11, ultrashort amphipathic helix peptide with binary encoding by arginine and leucine, alanine at the mutation position]",immediately and uniformly arrested cell division,16%,1.2 ± 0.2,less than 5%,,24,1 ± 1%,complete disruption of the entire vesicle population,unimodal “graded” mode of action,20%,,0%,0%
"RLLRLKLRL [bienK9, ultrashort amphipathic helix peptide with binary encoding by arginine and leucine, lysine at the mutation position]",,44%,2.0 ± 0.9,,,13,41 ± 20%,47 ± 7%,,,,,
"RLLRLKLRLL [bienK10, ultrashort amphipathic helix peptide with binary encoding by arginine and leucine, lysine at the mutation position]",,47%,2.0 ± 0.9,,,7,40 ± 7%,48 ± 10%,,,,,
"RLLRLKLRLLR [bienK11, ultrashort amphipathic helix peptide with binary encoding by arginine and leucine, lysine at the mutation position]",,48%,1.8 ± 0.9,31 ± 18%,,1,70 ± 13%,78 ± 4%,,,,,
